{"source": "patent US20150329608A1", "about": "(INSTITUT PASTEUR, priority 2008, published 2015)", "key": {"[1]": {"test_system": "despair or resignation behavior in adult male rats", "assay": "Behavioral despair test (forced swimming test)", "method": "The protective effect against resignation may be determined by the forced swimming test in rats.\nThe peptide to be tested is administered after the pre-test session and before the test. The immobility time of the rats is recorded for 5 min during the pre-test and the test.\nThe test includes a pre-test session of 15 minutes and a test session of 5 minutes, after 24 hours. During the pre-test session, the behavior of the rat is recorded during the first 5 minutes. At the end of the pre-test, the rat is removed from the water, delicately dried, treated and then put back in his dwelling cage. During the test, the rat is again deposited in water and its behavior is recorded for 5 minutes.\nThe reference substance was 8-OH-DOAT (0.5 mg/kg) which is a 5-HT1a agonist or imipramine (20 mg/kg), which is an inhibitor of serotonin reuptake."}, "[2]": {"test_system": "colic inflammation in rats", "assay": "Colic inflammation model (intrarectal TNBS)", "assay_type": "in vivo, rat", "details": "opiorphin 1 mg/kg i.v."}, "[3]": {"test_system": "tail-flick response in male Wistar rats", "method": "Male Wistar rats (Harlan, France) weighing 250 to 280 g at the beginning of the experiment were used in this study. After 7-day acclimatization period, they were weighed and randomly housed according to the treatment groups in a room with a 12 h alternating light/dark cycle (21:00 p.m./9:00 a.m.) and controlled temperature (21±1° C.) and hygrometry (50±5%). Food and water were available ad libidum. They were experimentally only tested once.\n(§1) All drugs were administered in a volume of 1 ml/kg body weight.\nThe tail-flick test evaluating the time required to respond to acute thermal stimulus preferentially reflects nociceptive spinal reflex. A standardized tail-flick apparatus (Harvard Apparatus LTD, Edenbridge, England) with a radiant heat source connected to an automated tail-flick analgesymeter was used. Rats were accustomed to the situation of contention for two 2-min sessions, the day prior the test. On experimental day, they were gently restrained by hand so the radiant heat source was focused onto the distal dorsal surface of the tail. […] Under these experimental conditions and in reference to morphine, a 5 sec cut-off time was established to prevent tissue damage. […] For tolerance induction rats received daily intravenous administration of freshly prepared solutions during seven consecutive days.\nThe results were expressed as mean±SEM. The significance of differences between groups was evaluated using the Kruskal-Wallis one-way analysis of variance by ranks (KWT, a non-parametric method) for comparison between several independent variables across the experimental conditions. […] The non-parametric Wilcoxon matched pairs test (WT) was used to compare two paired variables with repeated measures in each treatment group. For all statistical evaluations, the level of significance was set at P<0.05. All statistical analyses were carried out using the computer software StatView®5 statistical package (SAS, Institute, Inc., USA)."}, "[4]": {"test_system": "peristaltism in rats"}, "[5]": {"test_system": "pharmaco-dependency behavior in rats", "details": "opiorphin at effective analgesic doses (1 mg/kg), repeated administration"}, "[6]": {"test_system": "memorization in rats", "from_the_text": "With the passive avoidance test in rats it is possible to evaluate the degree of memorization of the animal during the application of an aversive stimulus from which it cannot escape. […] The first compartment where the rat is deposited at the beginning of the test is illuminated and communicates through a sash door with a dark compartment and the floor of which includes an electrified grid. The passive avoidance test includes a pre-test session where the animals receive an electric shock (2 mA, 2s) when it enters the dark compartment, and a 3 minute test session after 24 hours, where the behavior of the animal is analyzed for its long term retention of the learned task (the grid of the dark compartment is no longer electrified in the test)."}, "[7]": {"test_system": "anxiety in Wistar male rats"}, "[8]": {"test_system": "chronic pain behavioral response in rats", "assay": "Formalin test (chronic chemical inflammatory pain)", "method": "The reference substance is morphine, at a dose of 2 mg/kg.\nThe antagonistic effect of the following ligands was analyzed: an opioid antagonist with a wide spectrum (Naloxone, 3 mg/kg) and selective antagonists of the opioid μ-receptors (CTOP, 0.8 mg/kg), δ-receptors (Naltrindole, 10 mg/kg) and κ-receptors (Nor-Binaltorphimine, 5 mg/kg), respectively.\nas §1"}, "[9]": {"test_system": "locomotor activity in rats", "details": "opiorphin 1 mg/kg i.v.; vs control", "method": "The measured variables are the number of upright standing movements (vertical activity) and the number of passages into the two compartments (horizontal activity) during a period of 3 min. The reference molecule is imipramine (20 mg/kg)."}, "[10]": {"test_system": "acute pain behavioral response in male rats"}}, "note": "Peptide text beside a SMILES is read from it.", "data": [{"molecule": "CCCN(CCC)C1CCc2cccc(O)c2C1", "note": "(stereo not drawn) [8-OH-DPAT, reference compound]", "values": [{"measurement": "immobility time in the test vs control group (Mann-Whitney)", "setting": "[1]; 8-OH-DPAT 0.5 mg/kg", "result": "significantly less than that of the rats from the control group"}, {"measurement": "immobility time, change between pre-test and test (Wilcoxon)", "setting": "[1]; 8-OH-DPAT 0.5 mg/kg", "result": "significantly decreases between the pre-test and the test"}]}, {"molecule": "CC(C)Cc1ccc(C(C)C(=O)O)cc1", "note": "(stereo not drawn) [ibuprofen, reference compound]", "values": [{"measurement": "protection of the colic wall from inflammation", "setting": "[2]", "result": "protect the colic wall from inflammation"}]}, {"molecule": "CN1CC[C@]23c4c5ccc(O)c4O[C@H]2[C@@H](O)C=C[C@H]3[C@H]1C5", "note": "[morphine, reference compound]", "values": [{"measurement": "morphine-induced increase vs Opiorphin-induced response, day 7", "setting": "[3]; 15 min post-injection, after 7 days chronic treatment", "result": "tended to be lower than the response induced by Opiorphin"}, {"measurement": "inhibition of peristaltism as compared with control rats", "setting": "[4]; rats treated with morphine", "result": "80-90%"}]}, {"molecule": "NC(=O)CC[C@H](N)C(=O)N[C@@H](CCCN=C(N)N)C(=O)N[C@@H](Cc1ccccc1)C(=O)N[C@@H](CO)C(=O)N[C@@H](CCCN=C(N)N)C(=O)O", "note": "[opiorphin, QRFSR] (H-QRFSR-OH)", "values": [{"measurement": "pharmaco-dependence", "setting": "[5]", "result": "does not cause significant pharmaco-dependence"}, {"measurement": "response latencies vs morphine-treated rats", "setting": "[3]; 15, 25 and 60 minutes after treatment, Opiorphin 2 mg/kg i.v. vs morphine 1 mg/kg i.v.", "result": "did not significantly differ"}, {"measurement": "tolerance to maximal antinociceptive effect", "setting": "[3]; Opiorphin 2 mg/kg i.v. once daily for 7 days", "result": "does not induce the development of tolerance"}, {"measurement": "dose of maximal antinociceptive effect", "setting": "[3]; preliminary data, dose-dependent responses", "result": 2, "unit": "mg/kg"}, {"measurement": "latency time for entering the dark compartment, Test", "setting": "[6]; 24 hours after, Opiorphin 1 mg/kg i.v. given immediately after pre-test, average ±SEM, n=8", "result": "158.5 ± 20.5"}, {"measurement": "amnesia effect", "setting": "[6]; opiorphin 1 mg/kg i.v.", "result": "does not show any amnesia effect"}, {"measurement": "overall anxiety score, Average ± SEM", "setting": "[7]; Opiorphin 1 mg/kg i.v., 15 minutes before the test, n=8", "result": "25.94 ± 3.74"}, {"measurement": "anxiolytic activity relatively to the control", "setting": "[7]; opiorphin 1 mg/kg i.v.", "result": "did not show any anxiolytic activity"}, {"measurement": "effects of opiorphin in the presence of Naltrindole", "setting": "[1]; Naltrindole 10 mg/kg, specific antagonist of δ-opioid receptors", "result": "abolished"}, {"measurement": "dose of maximum antidepressant potency", "setting": "[1]; administered intravenously, adult male rats", "result": 1, "unit": "mg/kg"}, {"measurement": "immobility time in the test vs control group (Mann-Whitney)", "setting": "[1]; opiorphin 0.5 mg/kg i.v.", "result": "tends to be less than that of the rats from the control group"}, {"measurement": "immobility time in the test vs control group (Mann-Whitney)", "setting": "[1]; opiorphin 1 mg/kg i.v.", "result": "significantly less than that of the rats from the control group"}, {"measurement": "immobility time, change between pre-test and test (Wilcoxon)", "setting": "[1]; opiorphin 1 mg/kg i.v.", "result": "significantly decreases between the pre-test and the test"}, {"measurement": "effect in the behavioral despair model", "setting": "[1]; opiorphin 1 mg/kg i.v., second series", "result": "induces an antidepressant effect in addition to a psychostimulant effect"}, {"measurement": "immobility time in the test vs control group (Mann-Whitney)", "setting": "[1]; opiorphin 2 mg/kg i.v.", "result": "significantly less than that of the rats from the control group"}, {"measurement": "immobility time, change between pre-test and test (Wilcoxon)", "setting": "[1]; opiorphin 2 mg/kg i.v.", "result": "significantly decreases between the pre-test and the test"}, {"measurement": "analgesic effect of opiorphin in the presence of Naloxone", "setting": "[8]; Naloxone 3 mg/kg", "result": "abolished"}, {"measurement": "prolonged analgesic profile, dose effect", "setting": "[8]; duration of licking of the paw and number of spasms, n=8 rats/group", "result": "significant dose-dependent effect"}, {"measurement": "dose of maximum anti-nociceptive potency", "setting": "[8]; i.v., duration of licking of the paw and number of spasms, 60 min", "result": "1 to 2", "unit": "mg/kg"}, {"measurement": "analgesic effect of opiorphin in the presence of CTPA", "setting": "[8]; specific antagonist of μ-opioid receptors, 0.8 mg/kg", "result": "abolished"}, {"measurement": "anti-peristaltic effect", "setting": "[4]; rats treated with opiorphin", "result": "not observed"}, {"measurement": "protection of the colic wall from inflammation", "setting": "[2]", "result": "does not protect the colic wall from inflammation"}, {"measurement": "hyperactivity effect", "setting": "[9]", "result": "nor any significant hyperactivity effect"}, {"measurement": "antinociceptive activity compared with morphine", "setting": "[10]; opiorphin 1 mg/kg i.v. vs morphine 6 mg/kg i.p.", "result": "equivalent"}, {"measurement": "antinociceptive activity", "setting": "[10]; opiorphin 1 mg/kg i.v., n=8-12 rats/group", "result": "potent antinociceptive activity"}]}]}
